Where “and” joins values, the source holds several entries; their conditions need not be identical. Equal values may be shown once. Inconclusive results and toxic doses are left out. How the source made its calls: active means survival T/C of 150% or more; inactive means T/C below 125% in these data.
Test system: CD2F1 mice, L1210 leukemia ip, survival T/C
Experiment: NCI In Vivo Anticancer Drug Screen. Data for tumor model L1210 Leukemia (intraperitoneal) in CD2F1 (CDF1) mice
Details: higher = longer survival
Procedure, shortened: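 In this screen, transplantable tumors were grown in mice given either the compound or its vehicle. Results were expressed as the treated measurement relative to the control measurement.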

[1] = endpoint: mean survival time, dose: 100.0 mg/kg/injection, schedule: Q01DX009 (ip), vehicle: saline with Tween-80
[2] = endpoint: mean survival time, dose: 100.0 mg/kg/injection, schedule: Q04DX003 (ip), vehicle: saline with Tween-80
[3] = endpoint: mean survival time, dose: 200.0 mg/kg/injection, schedule: Q01DX009 (ip), vehicle: saline with Tween-80
[4] = endpoint: mean survival time, dose: 200.0 mg/kg/injection, schedule: Q04DX003 (ip), vehicle: saline with Tween-80
[5] = endpoint: mean survival time, dose: 400.0 mg/kg/injection, schedule: Q01DX009 (ip), vehicle: saline with Tween-80
[6] = endpoint: mean survival time, dose: 400.0 mg/kg/injection, schedule: Q04DX003 (ip), vehicle: saline with Tween-80
[7] = endpoint: mean survival time, dose: 100.0 mg/kg/injection, schedule: Q01DX001 (ip), vehicle: saline with Tween-80
[8] = endpoint: mean survival time, dose: 200.0 mg/kg/injection, schedule: Q01DX001 (ip), vehicle: saline with Tween-80
[9] = endpoint: mean survival time, dose: 400.0 mg/kg/injection, schedule: Q01DX001 (ip), vehicle: saline with Tween-80

Measured: T/C

COC(=O)CCCCCCCCO
inactive: [1] 109 % of control | [2] 97 % of control | [3] 101 % of control | [4] 95 % of control | [5] 104 % of control | [6] 90 % of control

COc1cccc(C(O)c2ccncc2C)c1OC (centres undefined)
inactive: endpoint: mean survival time, dose: 25.0 mg/kg/injection, schedule: Q01DX009 (ip), vehicle: Klucel (hydroxypropylcellulose) (HPC) 97 % of control | endpoint: mean survival time, dose: 50.0 mg/kg/injection, schedule: Q01DX009 (ip), vehicle: Klucel (hydroxypropylcellulose) (HPC) 97 % of control | endpoint: mean survival time, dose: 100.0 mg/kg/injection, schedule: Q01DX009 (ip), vehicle: Klucel (hydroxypropylcellulose) (HPC) 95 % of control | endpoint: mean survival time, dose: 200.0 mg/kg/injection, schedule: Q01DX009 (ip), vehicle: Klucel (hydroxypropylcellulose) (HPC) 98 % of control

C=C1C(=O)C2=CC1CCC(=O)C1(C)CCC(OC(C)=O)C(C)(C)C1CC2O (centres undefined)
inactive: endpoint: mean survival time, dose: 3.75 mg/kg/injection, schedule: Q01DX009 (ip), vehicle: Klucel (hydroxypropylcellulose) (HPC) 97 % of control | endpoint: mean survival time, dose: 7.5 mg/kg/injection, schedule: Q01DX009 (ip), vehicle: Klucel (hydroxypropylcellulose) (HPC) 98 % of control and 100 % of control | endpoint: mean survival time, dose: 15.0 mg/kg/injection, schedule: Q01DX009 (ip), vehicle: Klucel (hydroxypropylcellulose) (HPC) 95 % of control and 98 % of control | endpoint: mean survival time, dose: 30.0 mg/kg/injection, schedule: Q01DX009 (ip), vehicle: Klucel (hydroxypropylcellulose) (HPC) 98 % of control and 101 % of control | endpoint: mean survival time, dose: 60.0 mg/kg/injection, schedule: Q01DX009 (ip), vehicle: Klucel (hydroxypropylcellulose) (HPC) 95 % of control and 96 % of control | endpoint: mean survival time, dose: 120.0 mg/kg/injection, schedule: Q01DX009 (ip), vehicle: Klucel (hydroxypropylcellulose) (HPC) 89 % of control

COC(=O)C12C=CC=CC3C(C=C1)NC(=O)C32 (centres undefined)
inactive: endpoint: median survival time, dose: 25.0 mg/kg/injection, schedule: Q04DX002 (ip), vehicle: saline with Tween-80 122 % of control | endpoint: median survival time, dose: 50.0 mg/kg/injection, schedule: Q04DX002 (ip), vehicle: saline with Tween-80 100 % of control | endpoint: median survival time, dose: 100.0 mg/kg/injection, schedule: Q04DX002 (ip), vehicle: saline with Tween-80 100 % of control | endpoint: median survival time, dose: 200.0 mg/kg/injection, schedule: Q04DX002 (ip), vehicle: saline with Tween-80 111 % of control

O=[N+]([O-])c1ccccc1-c1ccc(Cl)cc1
inactive: [7] 88 % of control | [8] 91 % of control | [9] 92 % of control

CN(C)[C@@H]1C(=O)C(C(=O)NCNc2nc3n[nH]nc3c(=O)[nH]2)=C(O)[C@@]2(O)C(=O)C3=C(O)c4c(O)cccc4[C@@](C)(O)[C@H]3C[C@@H]12
inactive: endpoint: mean survival time, dose: 50.0 mg/kg/injection, schedule: Q01DX009 (ip), vehicle: saline with Tween-80 117 % of control | [1] 123 % of control | [5] 94 % of control

CCCCCCCCCCCCC1C(=O)NC(=O)NC1=O
inactive: endpoint: mean survival time, dose: 75.0 mg/kg/injection, schedule: Q01DX001 (ip), vehicle: saline 100 % of control | endpoint: mean survival time, dose: 150.0 mg/kg/injection, schedule: Q01DX001 (ip), vehicle: saline 99 % of control | endpoint: mean survival time, dose: 300.0 mg/kg/injection, schedule: Q01DX001 (ip), vehicle: saline 97 % of control

S=c1sc2ccccc2n1CN1CCCCC1
inactive: [7] 100 % of control | [8] 100 % of control | [9] 108 % of control

C=CCn1c(NCCN(CC)CC)nc2ccc(Cl)cc2c1=O
inactive: endpoint: mean survival time, dose: 12.5 mg/kg/injection, schedule: Q01DX009 (ip), vehicle: saline sonified 105 % of control | endpoint: mean survival time, dose: 12.5 mg/kg/injection, schedule: Q04DX003 (ip), vehicle: saline 100 % of control | endpoint: mean survival time, dose: 25.0 mg/kg/injection, schedule: Q01DX009 (ip), vehicle: saline sonified 100 % of control | endpoint: mean survival time, dose: 25.0 mg/kg/injection, schedule: Q04DX003 (ip), vehicle: saline 100 % of control | endpoint: mean survival time, dose: 50.0 mg/kg/injection, schedule: Q01DX009 (ip), vehicle: saline sonified 103 % of control | endpoint: mean survival time, dose: 50.0 mg/kg/injection, schedule: Q04DX003 (ip), vehicle: saline 101 % of control

O=[N+]([O-])c1ccc2ccccc2c1I
inactive: [1] 92 % of control | [2] 87 % of control | [3] 98 % of control | [4] 93 % of control | [5] 90 % of control | [6] 92 % of control

Reference: PubChem BioAssay AID256 (DTP/NCI, 2004)
